Assay results from article PMC6150271, “‘Click Chemistry’ Synthesis of Novel Natural Product-Like Caged Xanthones Bearing a 1,2,3-Triazole Moiety with Improved Druglike Properties as Orally Active Antitumor Agents” (Molecules : A Journal of Synthetic Chemistry and Natural …, 2017).
Values after ≈ are worked out from the molar mass of the structure shown. Read-outs that look alike come from different tables or passages of the source. Marks after values point to notes of the source that are not given here.

Columns and labels:
[1] = test system: human lung carcinoma A549 cell line; experiment: MTT antiproliferative assay, A549; type: cell-based; settings: Homo sapiens, A549; MTT, 72 h
Description: (§1) The antiproliferative activity of the ten synthesized caged xanthone derivatives, as well as the lead compound DDO-6101 and GA were assessed with the 3-(4,5-dimethylthiazol-2-yl)-2,5-diphenyltetrazolium bromide (MTT) assay, as previously reported, against six human cancer cell lines, including the human lung carcinoma A549 cell line, taxol-resistant A549 cell line (A549/taxol), cisplatin-resistant A549 cell line (A549/cisplatin), the human hepatocellular carcinoma HepG2 cell line, the human colon carcinoma HCT-116 cell line, and the human glioblastoma U251 cell line. DDO-6101 and GA were used as positive controls for the in vitro assay.
(§2) Cancer cell lines were obtained from Cell Bank of Shanghai, Chinese Academy of Sciences. Cells were cultured in 90% RPMI 1640 medium (GIBCO, Invitrogen Corporation, New York, NY, USA) supplemented with 10% fetal bovine serum (Sijiqing Biotechnology Co., Hangzhou, China), 100 U/mL benzyl penicillin, and 100 μg/mL streptomycin in a humidified environment with 5% CO2 at 37 °C. All the tested compounds were dissolved in DMSO at a concentration of 0.01 mol/L and stored at −4 °C.
(§3) The inhibition of tumour cell growth was measured by a modified tetrazolium (MTT) salt assay. Cells were cultured in a 96-well plate and treated with culture medium alone or different concentrations of the compounds. The cells were incubated for 72 h, and then the MTT assay reagent was added. After a 4 h incubation, the formazan product was quantitated at 570 nm. The IC50 values (the concentrations that gave rise to 50% inhibition of cell viability) were calculated using GraphPad Prism 6 using a variable slope (four parameters).

[2] = test system: taxol-resistant A549 cell line (A549/taxol); experiment: MTT antiproliferative assay, A549/taxol; type: cell-based; settings: Homo sapiens
Description: as §1, §2, §3

[3] = test system: cisplatin-resistant A549 cell line (A549/cisplatin); experiment: MTT antiproliferative assay, A549/cisplatin; type: cell-based; settings: Homo sapiens, 72 h
Description: as §1, §2, §3

[4] = test system: human hepatocellular carcinoma HepG2 cell line; experiment: MTT antiproliferative assay, HepG2; type: cell-based; settings: 72 h
Description: as §1, §2, §3

[5] = test system: human colon carcinoma HCT-116 cell line; experiment: MTT antiproliferative assay, HCT116; type: cell-based; settings: 72 h
Description: as §1, §2, §3

[6] = test system: U2OS cells; experiment: MTT antiproliferative assay, U2OS; type: cell-based; settings: Homo sapiens, 72 h
[7] = logD by potentiometric titration (Gemini Profiler); type: physicochemical; settings: measured on Gemini Profiler instrument (pION); for logD: pH 7.4, read-out: Log D 7.4
[8] = Aqueous solubility by HPLC; settings: thermodynamic from solid
Text: (§4) In parallel with the in vitro antitumor activity testing, the physicochemical properties of the target caged xanthone derivatives were theoretically predicted and experimentally determined in an effort to identify potential druglike compounds prior to the time-consuming and costly development and optimization of derivatives that may ultimately fail in efficacy experiments in vivo. The partition coefficient (logD) was experimentally determined on a Gemini Profiler instrument (pION, Inc., Woburn, MA, USA) by a potentiometric titration method. The polar surface area (PSA), as well as intestinal absorption level, were theoretically predicted by Accelrys Discovery Studio 4.0 (BIOVIA, San Diego, CA, USA) using the ADMET protocol. […] The permeability coefficient (Pe) was determined using a standard parallel artificial membrane permeability assay (PAMPA) on a PAMPA Explorer instrument (pION).
(§5) A HPLC system with an ultraviolet (UV) detector was used to detect the solubility of the compounds. The optimal wavelength was 290 nm. Ethanol/water (85:15) was an efficient eluent at a flow rate of 0.5 mL/min. The compounds were stirred in deionized water overnight to maximize the retention of the compounds in solution. Then, the solutions were filtered and the supernatant was used as a fluid sample for HPLC detection. The permeability (Pe) of the compounds was tested with the help of a standard PAMPA (pION). PAMPA was performed on a PAMPA Explorer instrument (pION) with the PAMPA Explorer command software (Version 3.7.4.1). The compounds were diluted to 10 mM with the system solution buffer (pH 7.4). Then, 150 μL of the diluted compound solution was transferred to a UV plate, and the UV spectrum was collected and used as a reference. Then, paint the membrane with 5 μL of gastrointestinal tract (GIT) lipid. The acceptor chamber was filled with 200 μL of acceptor solution buffer, and the donor chamber was filled with 200 μL of diluted compound solution. The PAMPA sandwich was assembled and left at 25 °C for 4 h. The UV spectra (240–500 nm) from the donor and the acceptor were collected. The permeability coefficient was calculated with the PAMPA Explorer Command software (Version 3.7.4.1) based on the area under the curve (AUC) of the reference plate, the donor plate, and the acceptor plate. The permeability coefficient of the compound was tested for four times, and the data are shown as the average values.

[9] = Parallel artificial membrane permeability assay (PAMPA)
Text: as §4
as §5, with “The PAMPA sandwich was assembled and left at 25 °C for 4 h.” left out

[10] = test system: lung cancer A549 transplanted mouse model; experiment: In vivo tumor growth inhibition, intravenous administration; set-up: species or system Kunming mice; settings: 20 mg/kg
Description: The lung cancer A549 transplanted mouse model was employed. DDO-6101 and antitumor drug 5-fluorouracil (5-FU) were also tested for comparison.
Kunming mice with body weights of 18–22 g were transplanted with lung cancer A549 cells according to protocols of transplant tumor research, as previously reported. Twenty-four hours after tumor transplantation, animals were weighed and randomly divided into five groups. All test drugs were given […] 24 h after tumor transplantation. The treated groups were intravenously injected or administered per os different doses of test compounds, respectively. The negative control group received 0.9% normal saline. Treatments were conducted at a frequency of one dose per two days for the intravenous group or one dose per day for the per os group for two or one week, respectively. All animals were sacrificed 24 h after the final treatment. All data are presented as mean ± SD and the statistical significance was evaluated by t-test.

[11] = A549/Taxol, MTT, 72 h, read-out: IC50 A549/Taxol

SMILES	IC50 [1]	IC50 [2, 11]	IC50 [3]	IC50 [4]	IC50 [5]	IC50 [6]	logD [7]	solubility ([8]; deionized water)	Papp at 4 h, 10 mM ([9]; pH 5)	Papp at 4 h, 10 mM ([9]; pH 6.2)	Papp at 4 h, 10 mM ([9]; pH 7.4)	melting point	also measured
CC(C)=CCC12OC(C)(C)C3CC(C=C4C(=O)c5c(OCc6cn(CCCN7CCCC7)nn6)cccc5OC431)C2=O (stereo not drawn) [Compound 8d]	2.62 ± 0.04 µM	1.7 ± 0.12 µM	0.89 ± 0.24 µM	4.48 ± 0.29 µM	1.02 ± 0.03 µM	3.05 ± 0.07 µM	1.6	1920 µM (≈ 1100 µg/mL)	15.4 ± 2.1 ×10⁻⁶ cm/s	52.8 ± 1.6 ×10⁻⁶ cm/s	66.4 ± 8.4 ×10⁻⁶ cm/s	144 to 146 °C	–
CC(C)=CCC[C@]1(C)C=Cc2c(O)c3c(c(CC=C(C)C)c2O1)O[C@]12C(=C[C@@H]4C[C@H]1C(C)(C)O[C@@]2(C/C=C(/C)C(=O)O)C4=O)C3=O [GA, Gambogic acid, reference compound]	–	0.29 ± 0.04 µM	2.5 ± 0.06 µM	–	0.34 ± 0.08 µM	4.67 ± 0.11 µM	–	–	–	–	–	–	Log D 7.4 [7]: 3.6; solubility ([8]; water): < 5 µM; Pe range ([9]; PAMPA, 4 h, 10 mM): 0.9–2.3 × 10^–6 cm/s; Papp at 4 h, 10 mM ([9]; PAMPA, pH 5): 0.9 ± 0.5 ×10⁻⁶ cm/s; Pe pH=6.2 ([9]; pH 6.2): 1.8±0.2 10-6 cm/s; Pe pH=7.4 ([9]; pH 7.4): 2.3±0.3 10-6 cm/s
CC(C)=CCC12OC(C)(C)C3CC(C=C4C(=O)c5c(OCc6cn(CCN7CCN(C)CC7)nn6)cccc5OC431)C2=O (stereo not drawn) [Compound 8i]	3.33 ± 0.49 µM	2.12 ± 0.09 µM	0.78 ± 0.08 µM	5.35 ± 0.23 µM	6.15 ± 0.86 µM	9.51 ± 1.52 µM	1	3220 µM (≈ 1890 µg/mL)	11.3 ± 0.6 ×10⁻⁶ cm/s	41.5 ± 1.3 ×10⁻⁶ cm/s	67.5 ± 4.2 ×10⁻⁶ cm/s	171 to 175 °C	–
CC(C)=CCC12OC(C)(C)C3CC(C=C4C(=O)c5c(OCc6cn(CCN(C)C)nn6)cccc5OC431)C2=O (stereo not drawn) [Compound 8a]	1.95 ± 0.4 µM	1.22 ± 0.21 µM	1.48 ± 0.1 µM	2.12 ± 0.41 µM	1.64 ± 0.26 µM	2.22 ± 0.09 µM	2.1	1120 µM (≈ 597 µg/mL)	27.9 ± 3.3 ×10⁻⁶ cm/s	58.8 ± 2.1 ×10⁻⁶ cm/s	91.4 ± 9.8 ×10⁻⁶ cm/s	156 to 158 °C	–
CC(C)=CCC12OC(C)(C)C3CC(C=C4C(=O)c5c(OCc6cn(CCCN7CCOCC7)nn6)cccc5OC431)C2=O (stereo not drawn) [Compound 8h]	1.03 ± 0.06 µM	0.55 ± 0.08 µM	0.36 ± 0.04 µM	3.07 ± 0.13 µM	0.95 ± 0.12 µM	0.73 ± 0.07 µM	0.9	3700 µM (≈ 2180 µg/mL)	40 ± 0.1 ×10⁻⁶ cm/s	58 ± 6.1 ×10⁻⁶ cm/s	72.6 ± 0.1 ×10⁻⁶ cm/s	143 to 145 °C	IC50 ([2]; range over both resistant A549 lines and both compounds, read-out: IC50 values, taxol-resistant and cisplatin-resistant A549 cell lines): 0.33 to 0.55 µM
CC(C)=CCC12OC(C)(C)C3CC(C=C4C(=O)c5c(OCc6cn(CCCN7CCCCC7)nn6)cccc5OC431)C2=O (stereo not drawn) [Compound 8f]	1.07 ± 0.28 µM	1.29 ± 0.08 µM	1.32 ± 0.12 µM	6.3 ± 0.48 µM	1.39 ± 0.04 µM	2.07 ± 0.11 µM	2.7	880 µM (≈ 516 µg/mL)	34.9 ± 3.6 ×10⁻⁶ cm/s	55.1 ± 0.8 ×10⁻⁶ cm/s	68.7 ± 5.3 ×10⁻⁶ cm/s	125 to 128 °C	–
CC(C)=CCC12OC(C)(C)C3CC(C=C4C(=O)c5c(OCc6cn(CCN7CCCCC7)nn6)cccc5OC431)C2=O (stereo not drawn) [Compound 8e]	2.17 ± 0.12 µM	2.03 ± 0.11 µM	1.29 ± 0.48 µM	4.85 ± 0.39 µM	2.14 ± 0.18 µM	4.66 ± 0.03 µM	2.9	560 µM (≈ 321 µg/mL)	47.8 ± 4.7 ×10⁻⁶ cm/s	57.2 ± 1.4 ×10⁻⁶ cm/s	78.2 ± 8.8 ×10⁻⁶ cm/s	173 to 176 °C	Pe range ([9]; range under different pH from 5.0 to 7.4): 47.0–78.2 × 10^–6 cm/s
O=c1[nH]cc(F)c(=O)[nH]1 [Compound 5-FU, 5-fluorouracil, reference compound]	–	–	–	–	–	–	–	–	–	–	–	–	Body Weight Pre-Dose ([10]; pre-dose): 20.25 ± 1.27 g; Body Weight After-Dose ([10]; two weeks): 24.43 ± 2.62 g; Inhibitory Rate ([10]; two weeks): 64.71%; Weight of Tumor ([10]; two weeks): 0.48 ± 0.17 ^b g
CC(C)NCC(O)COc1cccc2ccccc12 (stereo not drawn) [Propranolol, reference compound]	–	–	–	–	–	–	–	–	–	–	–	–	Pe pH=7.4 ([9]; pH 7.4): 127.5±15.8 10-6 cm/s; Pe pH=7.4 ([9]; pH 7.4, listed as propranolol): 127.5 10-6 cm/s
